Measured values published in US9974726B2, “Gentle cleansing compositions with makeup removal properties” (L'OREAL, priority 2016, dated 2018).

System: skin of an arm
Test: Hydration Test (corneometer)
Format: in vivo
Settings: n=10
Protocol: Each of the compositions in the table below were individually applied to the skin of an arm (n=10) and then removed with a moist cotton pad. A corneometer was used to take initial measurements, and subsequent measurements at 1, 2, and 6 hour time points.

Question: Which results are given for `CCCCCCCCCCCCOS(=O)(=O)[O-].[Na+]` [5% sodium lauryl sulfate, sodium lauryl sulfate]?
Answer: corneometer measurement, 1 hours (1 hour after application and removal with moist cotton pad, * = statistically significant): 34.2; corneometer measurement, 2 hours (2 hours after application and removal, * = statistically significant): 33.5; corneometer measurement, 6 hours (6 hours after application and removal, * = statistically significant): 32.4; corneometer measurement, 0 hours (initial measurement): 30.7
